What was measured:
[1] = Stability of co-crystals stored at 98% relative humidity, checked by XRD; assay type: physicochemical; details: 98% RH
Experimental: The co-crystals were stored at 98% relative humidity and the stability was evaluated after 24 hours using powder X-ray diffraction. […] This stability of the co-crystal in the presence of high amounts of atmospheric moisture is responsible for maintenance of the effervescent action. The stability of the co-crystals to moisture was investigated by storing the co-crystals at 98% relative humidity and the following results were observed. The co-crystal samples were analysed with XRD to check whether the co-crystal retained its structure or became dissociated or degraded over time on exposure to the atmosphere. Stability of Co-Crystals at 98% RH

[2] = Dynamic vapour sorption (DVS) study; assay type: physicochemical; details: for Moisture sorption (weight gain) at 90% relative humidity: DVS, 90% RH
Experimental: UK. The sample weights were taken in the range of 30-50 mg and below experimental parameters were kept constant for all samples.

SMILES	XRD results (co-crystal stability) ([1]; Day 14)	XRD results (co-crystal stability) ([1]; Day 18)	Behaviour in DVS study (in words) ([2]; DVS 0-90% RH, 25 C)	Moisture sorption (weight gain) at 90% relative humidity ([2]; 25 C)	Change In Mass (%) ([2]; Target Relative Humidity 0.0%)	Change In Mass (%) ([2]; Target Relative Humidity 10.0%)	Change In Mass (%) ([2]; Target Relative Humidity 20.0%)	Change In Mass (%) ([2]; Target Relative Humidity 30.0%)	Change In Mass (%) ([2]; Target Relative Humidity 40.0%)	Change In Mass (%) ([2]; Target Relative Humidity 50.0%)	Change In Mass (%) ([2]; Target Relative Humidity 60.0%)	Change In Mass (%) ([2]; Target Relative Humidity 70.0%)	Change In Mass (%) ([2]; Target Relative Humidity 80.0%)	Change In Mass (%) ([2]; Target Relative Humidity 90.0%)	Weight gain due to moisture sorption (total) ([2]; DVS 0-90% RH, 25 C)
NC(=O)c1cccnc1.NC(=O)c1cccnc1.O=C(O)CC(O)(CC(=O)O)C(=O)O [Citric acid-nicotinamide, 1:2, citric acid-nicotinamide 1:2 co-crystal]	Stable	Stable	non-hygroscopic	0.23%											
NC(=O)c1cccnc1.NC(=O)c1cccnc1.O=C(O)CC(O)(CC(=O)O)C(=O)O [Citric acid:nicotinamide, 1:2 co-crystal]					0.0002%	0.0044%	0.0070%	0.0108%	0.0145%	0.0203%	0.0318%	0.0561%	0.0976%	0.2319%	
O=C(O)CC(O)(CC(=O)O)C(=O)O [citric acid]			undergoes liquefaction		0.00%	0.00%	0.00%	0.00%	0.00%	0.00%	0.01%	0.02%	4.65%	31.21%	31%
O=C([O-])O.[Na+] [sodium bicarbonate]				0.32%	−0.0001%	0.0027%	0.0042%	0.0056%	0.0074%	0.0103%	0.0143%	0.0240%	0.0746%	0.3236%	

— patent US10420718B2, “Effervescent compositions containing co-crystals of the acid part” (University of Bradford, priority 2014, dated 2019)
